“Also recorded” adds a separate entry of the source.
Columns and labels:
[1] = molecular target: LRS-RagD interaction (Homo sapiens, UniProt Q9P2J5); assay: ELISA of LRS-RagD interaction; format: binding
Protocol: His-tagged human LRS proteins were diluted in carbonate buffer (100 mM, pH 9.6) to the concentration of 0.5 ng μl^−1. […] Protein from each well was removed and washed three times with PBS mixed with 0.05% Tweed® 20 (PBST), subjected to blocking with PBS containing 5% bovine serum albumin (BSA) for 2 hours. Each well was washed with PBST, followed by the treatment of a compound and GST-tagged human RagD protein simultaneously for 3 hours. GST protein itself was used as a negative control. Each well was treated with GST antibody diluted in PBST and incubated at room temperature for 1 h. After washing with PBST, the HRP-conjugated anti-horse IgG secondary antibody was incubated at room temperature for 1 h. TMB was added to each well for colorimetric development. […] To stop the chemical reaction, the treatment with 1 m H3PO4 was done. Finally, absorbance at 450 nm were measured.

[2] = molecular target: T1, Human LRS proteins (Homo sapiens, UniProt Q9P2J5); assay: Surface plasmon resonance (SPR) binding to LRS; conditions: for concentration-dependent binding to LRS (SPR): purified LRS
T1 construct: His
T1 sequence (Q9P2J5 whole entry): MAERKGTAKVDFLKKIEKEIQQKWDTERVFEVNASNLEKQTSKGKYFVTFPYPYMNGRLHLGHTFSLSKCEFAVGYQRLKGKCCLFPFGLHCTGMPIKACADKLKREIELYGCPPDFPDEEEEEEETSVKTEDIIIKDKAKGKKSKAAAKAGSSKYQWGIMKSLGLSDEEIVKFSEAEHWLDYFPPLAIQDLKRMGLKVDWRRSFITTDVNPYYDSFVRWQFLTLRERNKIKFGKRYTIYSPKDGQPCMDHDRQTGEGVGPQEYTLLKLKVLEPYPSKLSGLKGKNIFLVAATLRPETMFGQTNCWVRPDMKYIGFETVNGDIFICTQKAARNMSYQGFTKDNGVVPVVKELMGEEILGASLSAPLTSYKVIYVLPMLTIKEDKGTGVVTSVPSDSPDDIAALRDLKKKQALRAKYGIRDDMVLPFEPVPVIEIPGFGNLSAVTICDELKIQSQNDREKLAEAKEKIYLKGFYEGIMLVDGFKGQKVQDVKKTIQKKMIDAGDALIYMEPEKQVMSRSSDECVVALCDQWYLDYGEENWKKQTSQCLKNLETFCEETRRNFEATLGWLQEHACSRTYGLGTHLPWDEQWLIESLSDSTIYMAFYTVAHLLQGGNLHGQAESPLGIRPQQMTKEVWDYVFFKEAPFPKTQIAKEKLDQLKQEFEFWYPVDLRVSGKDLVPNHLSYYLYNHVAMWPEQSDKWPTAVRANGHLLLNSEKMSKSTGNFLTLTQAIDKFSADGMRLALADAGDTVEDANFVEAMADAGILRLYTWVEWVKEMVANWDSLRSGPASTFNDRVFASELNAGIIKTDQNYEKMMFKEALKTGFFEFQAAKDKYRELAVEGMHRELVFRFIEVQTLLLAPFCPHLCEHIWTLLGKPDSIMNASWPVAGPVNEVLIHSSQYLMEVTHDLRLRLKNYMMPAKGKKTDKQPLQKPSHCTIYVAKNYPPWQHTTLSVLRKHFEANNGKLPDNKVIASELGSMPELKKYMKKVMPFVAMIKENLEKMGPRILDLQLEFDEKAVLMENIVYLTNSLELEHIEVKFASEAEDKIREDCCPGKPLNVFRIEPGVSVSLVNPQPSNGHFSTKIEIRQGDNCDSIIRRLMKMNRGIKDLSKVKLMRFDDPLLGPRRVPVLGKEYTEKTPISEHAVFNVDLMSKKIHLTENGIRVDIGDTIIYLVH
Protocol: The dissociation […] constant (KD) toward His-LRS proteins was determined by using SPR instrument (Biacore T100) at the national center for inter-university research facilities (NCIRF) in Seoul National University. The carboxyl group on the surface of CMS chip was able to be replaced with protein by forming reactive succinimide ester with 1-ethyl-3-(3-dimethylaminopropyl)-carbodiimide (EDC) and N-hydroxysuccinimide (NHS). Human LRS proteins (1.5×PBS, pH 7.3) were immobilized on flow cell 2 (imed RU; 12000) by leading to amide bond formation with NHS ester. The residual NHS ester was quenched with 1 M ethanolamine-HCl (pH 8.0). Amide bond formation alone, without any protein t, was performed on flow cell 1 as a control. The immobilization process was proceeded on PBS buffer. After the immobilization of hLRS, compounds were flowed for 60 s at a flow rate of 20 μl min^−1 in various concentrations from 1 μM to […] was then flowed at the same flow rate for 200 s for dissociation of compounds. As a running buffer, 1×PBS (pH 7.3) containing 3% DMSO and 0.005% P2O was used. The experiment was performed at 25° C. Data analysis was done by using Biacore T100 Evaluation software. […] The dissociation constant (KD) was calculated by fitting to the 1:1 binding model.

[3] = system: mTORC1; assay: Western blotting, mTORC1 signalling pathway in HEK293T cells; format: cell-based; conditions: for amount of phospho-T389 S6K1 / phosphorylation suppression of S6K1 by western blotting: 20 μM; for phosphorylation suppression of S6K1 by western blotting: phospho-T389 S6K1 relative to DMSO
Protocol: HEK293T cell was cultured in Dulbecco modified eagle medium (DMEM) with 10% (v/v) fetal bovine serum (FBS) and 1% (v/v) antibiotic-antimycotic solution. […] The cells were cultured in 100-mm culture dish in an incubator at 37° C., in 5% CO2.
Cells were lysed with Radio-ImmunoPrecipitation Assay (RIPA) buffer (50 mM Tris, pH 7.8, 150 mM NaCl, 0.5% deoxycholate, 1% IGEPAL CA-630, protease inhibitor cocktail, and phosphatase inhibitors). Protein was obtained by transferring supernatant after centrifugation at 15000 rpm for 20 min. Protein concentration was measured with Micro BCA™ protein assay kit. Overall protein sampling procedure was done at 4° C. Prepared protein samples were analyzed with SDS-PAGE. Protein after electrophoresis was transferred into nitrocellulose membrane. Membrane was blocked with TBST mixed with 2% BSA over at least 1 h at r.t. Primary antibodies were incubated overnight at 4° C. […] After washing with TBST, HRP-labeled anti-rabbit IgG secondary antibody was treated at room temperature for 1 h. After washing with TBST, developing by Amersham ECL prime solution was done. Chemiluminescent signal was imaged by ChemiDoc™ MP imaging system.

[4] = system: mTORC2 signaling pathways; assay: Western blotting, phospho-S473 Akt in HEK293T cells; format: cell-based
Protocol: (§1) HEK293T cell was cultured in Dulbecco modified eagle medium (DMEM) with 10% (v/v) fetal bovine serum (FBS) and 1% (v/v) antibiotic-antimycotic solution. HeLa, DU145, and Ca Ski cells were cultured in RPMI 1640 medium with 10% (v/v) FBS and 1% (v/v) antibiotic-antimycotic solution. The cells were cultured in 100-mm culture dish in an incubator at 37° C., in 5% CO2.
(§2) Cells were lysed with Radio-ImmunoPrecipitation Assay (RIPA) buffer (50 mM Tris, pH 7.8, 150 mM NaCl, 0.5% deoxycholate, 1% IGEPAL CA-630, protease inhibitor cocktail, and phosphatase inhibitors). Protein was obtained by transferring supernatant after centrifugation at 15000 rpm for 20 min. Protein concentration was measured with Micro BCA™ protein assay kit. Overall protein sampling procedure was done at 4° C. Prepared protein samples were analyzed with SDS-PAGE. Protein after electrophoresis was transferred into nitrocellulose membrane. Membrane was blocked with TBST mixed with 2% BSA over at least 1 h at r.t. Primary antibodies were incubated overnight at 4° C. […]

[5] = system: mTORC1; assay: Western blotting, mTORC1 signalling in DU145 cells; format: cell-based
Protocol: as §1, §2

[6] = system: HeLa human cervical cancer cells; assay: Western blot analysis of LC3 and p62 (autophagy) in HeLa cells; format: cell-based; conditions: for LC3 I/LC3 II ratio / p62 level: 6 h, 200 nM Rap, 10 nM Baf, 20 μM 21f, compared with DMSO
Protocol: as §1
Cells were lysed with Radio-ImmunoPrecipitation Assay (RIPA) buffer (50 mM Tris, pH 7.8, 150 mM NaCl, 0.5% deoxycholate, 1% IGEPAL CA-630, protease inhibitor cocktail, and phosphatase inhibitors). Protein was obtained by transferring supernatant after centrifugation at 15000 rpm for 20 min. Protein concentration was measured with Micro BCA™ protein assay kit. Overall protein sampling procedure was done at 4° C. Prepared protein samples were analyzed with SDS-PAGE. Protein after electrophoresis was transferred into nitrocellulose membrane. Membrane was blocked with TBST mixed with 2% BSA over at least 1 h at r.t. Primary antibodies were incubated overnight at 4° C. The treatment concentration was as follows: Anti-LC3B (ab51520); 1:1000, anti-S6K1 (ab32359); 1:1000, anti-phospho-T389 S6K1 (ab2571); 1:800, anti-p62 (CST 5114); 1:1000, anti-glyceraldehyde-3-phosphate dehydrogenase (GAPDH) (CST 2118); 1:1000, anti-phospho-S65 4E-BP1 (CST 9451); 1:1000, anti-phospho-S757 ULK1 (CST 6888); 1:800, anti-phospho-S473 Akt (CST 4058); 1:1000, anti-phospho-T172 AMPKα (CST 2531). After washing with TBST, HRP-labeled anti-rabbit IgG secondary antibody was treated at room temperature for 1 h. After washing with TBST, developing by Amersham ECL prime solution was done. Chemiluminescent signal was imaged by ChemiDoc™ MP imaging system.

[7] = system: AMPK signaling pathways; assay: Western blotting, phospho-T172 AMPKα in HEK293T cells; format: cell-based
Protocol: as §1, §2

[8] = system: HEK293T cells; assay: Cell proliferation assay (BrdU); format: cell-based; conditions: 5 μM, in the presence of Leu
Protocol: HEK293T cells were seeded in 96-well plate from CORNING. 24 h after seeding, the compound diluted with DMEM at 5 μM of final concentration was treated in cells while leucine-free DMEM was treated in cells as a control. Cell division assay was done with WSTs assay and BrdU colorimetric kit, following the manufacturer's protocol.

[9] = system: mTORC1; assay: Western blotting, mTORC1 signalling in Ca Ski cells; format: cell-based
Protocol: as §1, §2

[10] = system: HeLa cells; assay: mCherry-GFP-LC3 puncta imaging; format: cell-based, human; conditions: 6 h, 200 nM Rap, 10 nM Baf, 20 μM 21f
Protocol: HeLa cells were seeded in chambered coverglass from Nunc and incubated for 24 h. mCherry-GFP-LC3 plasmid was transfected to the cells using Lipofectamine™ 2000 solution. Transfection was proceeded according to manufacturer's protocol.
DeltaVision Elite imaging system was used for the imaging of mCherry-GFP-LC3 transfected HeLa cell. For live-cell imaging, chamber was maintained at 37° C. and in 5% CO2. […] The wavelength range of the used filters is as follows: mCherry (Excitation: 575/25 nm, Emission: 625/45 nm); GFP (Excitation: 475/28 nm, Emission: 525/48 nm). Images were processed and analyzed with SoftWorks deconvolution software.

[11] = HEK293T cells, 20, 10, 5 and 1 μM, 3 h

LRS-RagD interaction, sequence (Q9P2J5 whole entry): as above

## CN(Cc1ccccc1)c1ncnc2c1[C@@H]1OC[C@H](CN2)N1S(=O)(=O)c1cccc([N+](=O)[O-])c1
other
  melting point: 101 to 103 °C

## CN(Cc1ccccc1)c1ncnc2c1C1OC[C@@H](CN2)N1C(=O)OC(C)(C)C [Compound 14f]
[1]
  dose-dependent inhibition of the LRS-RagD interaction (dose-response curves in ELISA): did not inhibit the LRS-RagD interaction in a dose-dependent manner
[2]
  concentration-dependent binding to LRS (SPR): did not bind to LRS in a concentration-dependent manner

## CN(Cc1ccccc1)c1ncnc2c1[C@@H]1OC[C@H](CN2)N1C(=O)NCc1ccccc1 [Compound 15f]
[1]
  dose-dependent inhibition of the LRS-RagD interaction (dose-response curves in ELISA): did not inhibit the LRS-RagD interaction in a dose-dependent manner
other
  melting point: 67 to 69 °C

## CN(Cc1ccccc1)c1ncnc2c1CN1[C@@H](CN2)COCS1(=O)=O [Compound 18f]
[1]
  dose-dependent inhibition of the LRS-RagD interaction (dose-response curves in ELISA): did not inhibit the LRS-RagD interaction in a dose-dependent manner
other
  melting point: 196 to 198 °C

## CN(Cc1ccccc1)c1ncnc2c1CN1C(=O)COC[C@@H]1CN2 [Compound 19f]
[1]
  dose-dependent inhibition of the LRS-RagD interaction (dose-response curves in ELISA): did not inhibit the LRS-RagD interaction in a dose-dependent manner
[2]
  concentration-dependent binding to LRS (SPR): did not bind to LRS in a concentration-dependent manner

## CN(Cc1ccccc1)c1ncnc2c1CN1C[C@@H]1CN2Cc1ccccc1 (stereo partly drawn) [Compound 20f]
[1]
  dose-dependent inhibition of the LRS-RagD interaction (dose-response curves in ELISA): inhibit the LRS-RagD interaction in a dose-dependent manner
  reduction of LRS-RagD interaction by ELISA: 15.5%
[3]; HEK293T cells, 3 h
  amount of phospho-T389 S6K1: less than that of 21f
  phosphorylation suppression of S6K1 by western blotting: 16.4%

## Cc1cc(C)cc(CN2C[C@H]3CN3Cc3c(N(C)Cc4ccccc4)ncnc32)c1 (stereo partly drawn) [Compound 21f]
[1]
  dose-dependent inhibition of the LRS-RagD interaction (dose-response curves in ELISA): inhibit the LRS-RagD interaction in a dose-dependent manner
  reduction of LRS-RagD interaction by ELISA: 30.2%
[4]; HEK293T cells, 10 μM, 0-24 h
  phospho-S473 Akt, time course: no effects
[4]; [11]
  phospho-S473 Akt: no effects
[3]; HEK293T cells, 0-24 h, 21f 10 μM, rapamycin 500 nM
  inhibition degree against phospho-S757 ULK1: high inhibition degree
[3]; HEK293T cells, 10 μM, 0-24 h
  Phospho-T389 S6K1, time course: reduced in cells treated with 21f as time passed
  duration of the effect on mTORC1 within cells: at least 12 h
  phospho-S65 4E-BP1, time course: reduced in cells treated with 21f as time passed
  phospho-S757 ULK1, time course: reduced in cells treated with 21f as time passed
[3]; HEK293T cells, 3 h
  amount of phospho-T389 S6K1: reduced amount of phospho-T389 S6K1
  phosphorylation suppression of S6K1 by western blotting: 48.9%
[3]; [11]
  Phospho-T389 S6K1: reduced in cells treated with 21f in a dose-dependent manner
  phospho-S65 4E-BP1: reduced in cells treated with 21f in a dose-dependent manner
  phospho-S757 ULK1: reduced in cells treated with 21f in a dose-dependent manner
[5]
  western blotting results, procedure of FIG. 15d: same as those from HEK293T cells
[6]
  LC3 I/LC3 II ratio: lowering LC3 I/LC3 II ratio
  p62 level: stimulated the degradation of p62; also recorded: reducing p62 level
[6]; in the presence of Leu
  cellular level of LC3 II: increased the cellular level of LC3 II
[7]; HEK293T cells, 10 μM, 0-24 h
  phospho-T172 AMPKα, time course: no effects
[7]; [11]
  phospho-T172 AMPKα: no effects
[8]
  cellular division level by BrdU assay: suppressed cell proliferation even in the presence of Leu; also recorded: cellular division was inhibited as treatment time passed
[9]
  western blotting results, procedure of FIG. 15d: same as those from HEK293T cells
[10]
  mCherry and GFP fluorescence (mCherry-GFP-LC3): red fluorescence
[2]
  Kd: 4.5 µM
  concentration-dependent binding to LRS (SPR): concentration-dependent binding to LRS

## C=CCN1C[C@H]2COC(=O)N2Cc2c(N(C)Cc3ccccc3)ncnc21 [Compound 22f]
[1]
  dose-dependent inhibition of the LRS-RagD interaction (dose-response curves in ELISA): did not inhibit the LRS-RagD interaction in a dose-dependent manner
other
  melting point: 89 to 91 °C

## CN(Cc1ccccc1)c1ncnc2c1CN(C(=O)OC(C)(C)C)[C@@H]1C=CCN2C1 [Compound 23f]
[1]
  dose-dependent inhibition of the LRS-RagD interaction (dose-response curves in ELISA): did not inhibit the LRS-RagD interaction in a dose-dependent manner

## CO/C1=C\C(C)=C\[C@@H](C)[C@@H](O)[C@@H](C)C/C(C)=C/C=C/[C@H](OC)[C@@H]([C@@H](C)[C@@H](O)[C@H](C)[C@@]2(O)C[C@@H](O)[C@H](C)[C@@H](C(C)C)O2)OC1=O [bafilomycin, reference compound]
[6]
  LC3 I/LC3 II ratio: increased ratio of LC3 I/LC3 II
  p62 level: accumulation of p62
[10]
  mCherry and GFP fluorescence (mCherry-GFP-LC3): yellow color

## CO[C@H]1C[C@@H]2CC[C@@H](C)[C@@](O)(O2)C(=O)C(=O)N2CCCC[C@H]2C(=O)O[C@H]([C@H](C)C[C@@H]2CC[C@@H](O)[C@H](OC)C2)CC(=O)[C@H](C)/C=C(\C)[C@@H](O)[C@@H](OC)C(=O)[C@H](C)C[C@H](C)/C=C/C=C/C=C/1C [rapamycin, reference compound]
[3]; HEK293T cells, 500 nM, 0 to 24 hours
  duration of the effect on mTORC1 within cells: at least 12 hours
